Source: the supplement of paper PMC10307832

Experiments:
Assay in all cases: relative viability (nuclei count vs DMSO), 5 days (fraction); higher = more cells survive
Wnt-C59 + Lapatinib = compound: CC1=NC=CC(=C1)C2=CC=C(C=C2)CC(=O)NC3=CC=C(C=C3)C4=CN=CC=C4 [Wnt-C59] + CS(=O)(=O)CCNCc1ccc(-c2ccc3ncnc(Nc4ccc(OCc5cccc(F)c5)c(Cl)c4)c3c2)o1 [Lapatinib] (partner 2 µM)
Summary of the method: (§1)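 A single step with final 0.05% Triton X-100, 1% formaldehyde and 1 ug/ml Hoechst fixed the cells and stained nuclei 5 days after treatment. Lung cancer cell lines in 1536-well plates had been treated by pin tool the day after seeding with one drug alone or a fixed anchor-drug dose plus five library-drug doses (not always all listed) in √10 steps, and nuclei were counted on 4× images. Relative viability is the ratio of nuclei in treated wells to nuclei in vehicle wells, taken as the median of duplicate plates.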

Lapatinib + Vorinostat = compound: CS(=O)(=O)CCNCc1ccc(-c2ccc3ncnc(Nc4ccc(OCc5cccc(F)c5)c(Cl)c4)c3c2)o1 [Lapatinib] + O=C(CCCCCCC(=O)Nc1ccccc1)NO [Vorinostat] (partner 1 µM)
Summary of the method: as §1

Wnt-C59 = compound: CC1=NC=CC(=C1)C2=CC=C(C=C2)CC(=O)NC3=CC=C(C=C3)C4=CN=CC=C4 [Wnt-C59]
Summary of the method: (§2)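 Only plates meeting two conditions passed: control CV below 25% and at least one doubling. Lung cancer cell lines, kept overnight at 37 °C in 1536-well plates, were pinned with five library-drug doses (not always all listed) √10 apart on vehicle-anchored plates and grown 5 days without medium change. A one-step fix, permeabilisation and Hoechst stain preceded 4× imaging and MetaXpress nuclear counting. Viability equals treated-well nuclei divided by vehicle-well nuclei, as the median over plates.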

Lapatinib = compound: CS(=O)(=O)CCNCc1ccc(-c2ccc3ncnc(Nc4ccc(OCc5cccc(F)c5)c(Cl)c4)c3c2)o1 [Lapatinib]
Summary of the method: as §2

Cell Line | relative viability (Wnt-C59 + Lapatinib; first compound 0.001 µM) | relative viability (Wnt-C59 + Lapatinib; first compound 0.01 µM) | relative viability (Wnt-C59 + Lapatinib; first compound 0.03162 µM) | relative viability (Wnt-C59 + Lapatinib; first compound 0.1 µM) | relative viability (Lapatinib + Vorinostat; first compound 0.06325 µM) | relative viability (Lapatinib + Vorinostat; first compound 0.2 µM) | relative viability (Lapatinib + Vorinostat; first compound 0.6325 µM) | relative viability (Lapatinib + Vorinostat; first compound 2 µM) | relative viability (Wnt-C59; 0.001 µM) | relative viability (Wnt-C59; 0.01 µM) | relative viability (Wnt-C59; 0.03162 µM) | relative viability (Wnt-C59; 0.1 µM) | relative viability (Lapatinib; 0.06325 µM) | relative viability (Lapatinib; 0.2 µM) | relative viability (Lapatinib; 0.6325 µM) | relative viability (Lapatinib; 2 µM) | relative viability (Lapatinib; 2 µM, anchor plate) | relative viability (Lapatinib + Vorinostat; first compound 0.02 µM) | relative viability (Lapatinib; 0.02 µM)
NCI-H1734 | 0.948 | 1.04 | 1.09 | 1.02 | 0.708 | 0.816 | 0.88 | 0.792 | 0.986 | 0.961 | 1.01 | 0.957 | 0.794 | 1.01 | 1.07 | 0.943 | 1.07 | – | –
NCI-H1666 | 0.675 | 0.516 | 0.659 | 0.75 | 0.978 | 1.05 | 0.961 | 0.789 | 0.993 | 0.92 | 0.951 | 0.967 | 0.871 | 0.89 | 0.862 | 0.708 | 0.702 | 0.951 | 0.936
BEN | 0.825 | 0.804 | 0.736 | 0.641 | 0.587 | 0.586 | 0.559 | 0.51 | 0.936 | 1 | 1.02 | 1.07 | 0.907 | 0.935 | 1 | 0.962 | 0.74 | 0.506 | 0.793
ChaGo-K-1 | – | – | – | – | 0.731 | 0.747 | 0.78 | 0.545 | 0.951 | 1.01 | 1.03 | 0.958 | 0.943 | 0.945 | 1 | 0.797 | – | 0.53 | 0.789
SK-MES-1 | 0.543 | 0.5 | 0.467 | 0.448 | 0.98 | 1.15 | 1.18 | 0.369 | 1.01 | 1.05 | 1.06 | 0.993 | 0.902 | 0.886 | 0.776 | 0.462 | 0.497 | 0.967 | 0.94
NCI-H3122 | 0.967 | 1.07 | 0.993 | 1.04 | 1.06 | 0.963 | 0.977 | 0.974 | 0.989 | 0.991 | 1.02 | 0.962 | 0.981 | 0.992 | 0.965 | 1 | 1.03 | 0.932 | 0.912
NCI-H1563 | 0.873 | 1.04 | 0.896 | 0.882 | – | – | – | – | 1.07 | 0.933 | 0.954 | 0.941 | 0.832 | 0.936 | 0.909 | 0.88 | 0.977 | – | 1.04
CAL-12T | 0.614 | – | 0.761 | 0.625 | 0.624 | 0.755 | 0.71 | 0.424 | 0.975 | 1.04 | 0.965 | 1.04 | 0.978 | 0.909 | 0.776 | 0.678 | 0.681 | 0.655 | 0.763
NCI-H1975 | 0.816 | 0.863 | 0.934 | 0.882 | 0.676 | 0.732 | 0.716 | 0.662 | 0.901 | 0.896 | 0.968 | 0.988 | 0.8 | 0.904 | 0.936 | 0.77 | 0.946 | 0.71 | 0.968
NCI-H2009 | 0.993 | 1.04 | 0.903 | 0.881 | 0.74 | 0.894 | 0.693 | 0.679 | 0.997 | 0.999 | 1 | 0.992 | 0.978 | 1.02 | 1.01 | 1 | 0.84 | 0.733 | 1.01
LC-2-ad | 1.03 | 0.902 | 0.975 | 0.927 | 0.632 | 0.763 | 0.623 | 0.672 | 1.05 | 0.966 | 0.933 | 0.955 | 0.895 | 0.984 | 0.983 | 0.896 | 0.967 | – | –
NCI-H647 | 1.04 | 1.08 | 1.21 | 1.04 | 0.403 | 0.627 | 0.498 | 0.584 | 0.914 | 1 | 0.934 | 0.946 | 0.897 | 0.767 | 1.02 | 0.806 | 1.06 | 0.627 | 0.776
HCC-78 | 0.632 | 0.721 | 0.901 | 0.741 | 0.318 | 0.39 | 0.388 | 0.375 | 0.814 | 1.02 | 0.99 | 1.12 | 0.734 | 0.922 | 0.935 | 0.793 | 0.801 | – | –
Calu-6 | 1.07 | 1.06 | 1.08 | 0.951 | – | – | – | – | 1.02 | 1.01 | 1.05 | 0.987 | 0.971 | 1.02 | 1.03 | 0.926 | 1.04 | – | 0.972
H3255 | 0.278 | 0.283 | 0.259 | 0.242 | 0.697 | 0.741 | 0.816 | 0.293 | 1.03 | 0.887 | 1.06 | 0.966 | 0.936 | 0.938 | 0.889 | 0.489 | 0.25 | – | 0.908
EBC-1 | 0.203 | 0.214 | 0.18 | 0.208 | – | – | – | – | 1.08 | 0.995 | 1.02 | 0.904 | 0.979 | 0.945 | 0.971 | – | – | – | 0.993
NCI-H1395 | 1.03 | 0.972 | 1.1 | 0.991 | 0.704 | 0.779 | 0.789 | 0.646 | 0.995 | 0.873 | 0.952 | 1.03 | 0.896 | 1.02 | 0.919 | 0.742 | 1.05 | – | –
PC-14 | 0.311 | 0.324 | 0.328 | 0.316 | 0.55 | 0.76 | 0.732 | 0.0919 | 1.09 | 1.1 | 1 | 1 | 0.954 | 0.965 | 0.958 | 0.644 | 0.343 | 0.652 | 0.914
